What was measured:
in vitro = details: human
HL-60 = HL-60 differentiation potency; assay type: cell-based; details: Homo sapiens

C[C@H]1[C@@H](Oc2ccc(C(=O)N[C@@H](CC3CCC3)C(=O)O)cc2)O[C@@H]2O[C@@]3(C)CC[C@H]4[C@H](C)CC[C@@H]1[C@@]24OO3 [Compound 205, (S)-3-cyclobutyl-2-(4-(((3R,5aS,6R,8aS, 9R,10S,12R, 12aR)-3,6,9-trimethyldeca-hydro-12H-3,12-epoxy[1,2]dioxepino[4,3-i]isochromen-10-yl)oxy)benzamido) propanoic acid] showed an IC50 (in vitro) of 110 nM and an EC50 (HL-60) of 35.1 nM.
For C[C@H]1[C@@H](OC[C@H]2CC[C@@H](C(=O)NC(C(=O)O)C3CCC3)CC2)O[C@@H]2O[C@@]3(C)CC[C@H]4[C@H](C)CC[C@@H]1[C@@]24OO3 (stereo partly drawn) [Compound 185, (S)-2-cyclobutyl-2-((1R,4R)-4-((((3R,5aS,6R,8aS, 9R,10S,12R, 12aR)-3,6,9-trimethyldeca-hydro-12H-3,12-epoxy[1,2]dioxepino[4,3-i]isochromen-10-yl)oxy)methyl)cyclohexane-1-carboxamido) acetic acid], the IC50 (in vitro) was over 20000 nM and the EC50 (HL-60) was 50.2 nM.
With C[C@H]1[C@@H](Oc2ccc(CC(=O)N[C@H]3CC[C@@H](C(=O)O)C3)cc2)O[C@@H]2O[C@@]3(C)CC[C@H]4[C@H](C)CC[C@@H]1[C@@]24OO3 [Compound 239, (1R,3S)-3-(2-(4-(((3R,5aS,6R,8aS, 9R,10S,12R, 12aR)-3,6,9-trimethyldeca-hydro-12H-3,12-epoxy[1,2]dioxepino[4,3-i]isochromen-10-yl)oxy)phenyl)acetamido)cyclo-pentane-1-carboxylic acid] the IC50 (in vitro) was 16200 nM and the EC50 (HL-60) was 21.9 nM.
For C[C@H]1[C@@H](OCc2ccc(OCC(=O)O)cc2Cl)O[C@@H]2O[C@@]3(C)CC[C@H]4[C@H](C)CC[C@@H]1[C@@]24OO3 [Compound 223, 2-(3-chloro-4-((((3R,5aS,6R,8aS, 9R,10S,12R, 12aR)-3,6,9-trimethyldeca-hydro-12H-3,12-epoxy[1,2]dioxepino[4,3-i]isochromen-10-yl)oxy)methyl)phenoxy)acetic acid], the IC50 (in vitro) was 2840 nM and the EC50 (HL-60) was 111 nM.
For C[C@H]1[C@@H](Oc2ccc(OCCC(=O)O)cc2)O[C@@H]2O[C@@]3(C)CC[C@H]4[C@H](C)CC[C@@H]1[C@@]24OO3 [Compound 250, 3-(4-(((3R,5aS,6R,8aS, 9R,10S,12R, 12aR)-3,6,9-trimethyldeca-hydro-12H-3,12-epoxy[1,2]dioxepino[4,3-i]isochromen-10-yl)oxy)phenoxy) propanoic acid], the IC50 (in vitro) was 17600 nM and the EC50 (HL-60) was 88.2 nM.
Work on C[C@H]1[C@@H](Oc2ccc(C(=O)Nc3ccc(C(=O)O)cc3)cc2)O[C@@H]2O[C@@]3(C)CC[C@H]4[C@H](C)CC[C@@H]1[C@@]24OO3 [Compound 246, 4-(4-(((3R,5aS,6R,8aS, 9R,10S,12R, 12aR)-3,6,9-trimethyldeca-hydro-12H-3,12-epoxy[1,2]dioxepino[4,3-i]isochromen-10-yl)oxy)benzamido) benzoic acid] yielded an IC50 (in vitro) of 40 nM and an EC50 (HL-60) of 15.8 nM.
For C[C@H]1[C@@H](OCC(=O)N[C@H](C(=O)O)C(C)(C)C)O[C@@H]2O[C@@]3(C)CC[C@H]4[C@H](C)CC[C@@H]1[C@@]24OO3 [Compound 188, (S)-3,3-dimethyl-2-(2-(((3R,5aS,6R, 8aS,9R,10S,12R, 12aR)-3,6,9-trimethyldeca-hydro-12H-3,12-epoxy[1,2]dioxepino[4,3-i]isochromen-10-yl)oxy)acetamido) butanoic acid], the IC50 (in vitro) was over 20000 nM and the EC50 (HL-60) was 5060 nM.
With C[C@H]1[C@@H](Oc2cc(Cl)cc(CC(=O)O)c2)O[C@@H]2O[C@@]3(C)CC[C@H]4[C@H](C)CC[C@@H]1[C@@]24OO3 [Compound 186, 2-(3-chloro-5-(((3R,5aS,6R,8aS, 9R,10S,12R, 12aR)-3,6,9-trimethyldeca-hydro-12H-3,12-epoxy[1,2]dioxepino[4,3-i]isochromen-10-yl)oxy)phenyl) acetic acid] the IC50 (in vitro) was 4000 nM and the EC50 (HL-60) was 62.4 nM.
For C[C@H]1[C@@H](Oc2ccc(CC(=O)N[C@H]3CC[C@@H](C(=O)O)CC3)cc2)O[C@@H]2O[C@@]3(C)CC[C@H]4[C@H](C)CC[C@@H]1[C@@]24OO3 [Compound 308, (1R,4s)-4-(2-(4-(((3R,5aS,6R,8aS, 9R,10S,12R, 12aR)-3,6,9-trimethyldeca-hydro-12H-3,12-epoxy[1,2]dioxepino[4,3-i]isochromen-10-yl)oxy)phenyl)acetamido) cyclohexane-1-carboxylic acid], the IC50 (in vitro; HL-60 cells) was over 20000 nM and the EC50 (HL-60) was 12.1 nM.
In the case of C[C@H]1[C@@H](O[C@H]2C[C@@H](C(=O)N[C@H]3CC[C@@H](C(=O)O)C3)C2)O[C@@H]2O[C@@]3(C)CC[C@H]4[C@H](C)CC[C@@H]1[C@@]24OO3 [Compound 201, (1R,3S)-3-((1R,3R)-3-(((3R,5aS,6R,8aS, 9R,10S,12R, 12aR)-3,6,9-trimethyldeca-hydro-12H-3,12-epoxy[1,2]dioxepino[4,3-i]isochromen-10-yl)oxy)cyclo-butane-1-carboxamido) cyclopentane-1-carboxylic acid], the IC50 (in vitro; HL-60 cells) is reported as over 20000 nM and the EC50 (HL-60) is reported as 6730 nM.
Compound C[C@H]1[C@@H](Oc2ccc(C(=O)N3[C@H](C(=O)O)C[C@@H]4CCC[C@@H]43)cc2)O[C@@H]2O[C@@]3(C)CC[C@H]4[C@H](C)CC[C@@H]1[C@@]24OO3 [Compound 207, (2S,3aS,6aS)-1-(4-(((3R,5aS,6R,8aS, 9R,10S,12R, 12aR)-3,6,9-trimethyldeca-hydro-12H-3,12-epoxy[1,2]dioxepino[4,3-i]isochromen-10-yl)oxy)benzoyl) octahydrocyclo penta[b]pyrrole-2-carboxylic acid] has an IC50 (in vitro) of 680 nM and an EC50 (HL-60) of 150 nM.
With C[C@H]1[C@@H](OC[C@H]2CC[C@@H](C(=O)NC34CCC(C(=O)O)(C3)C4)CC2)O[C@@H]2O[C@@]3(C)CC[C@H]4[C@H](C)CC[C@@H]1[C@@]24OO3 [Compound 295, 4-((1R,4s)-4-((((3R,5aS,6R,8aS, 9R,10S,12R, 12aR)-3,6,9-trimethyldeca-hydro-12H-3,12-epoxy[1,2]dioxepino[4,3-i]isochromen-10-yl)oxy)methyl)cyclohexane-1-carboxamido) bicyclo[2.1.1] hexane-1-carboxylic acid] the IC50 (in vitro) was over 20000 nM and the EC50 (HL-60) was 197 nM.
CO[C@]1(CO[C@H]2O[C@@H]3O[C@@]4(C)CC[C@H]5[C@H](C)CC[C@@H]([C@H]2C)[C@@]35OO4)CC[C@@H](C(=O)O)CC1 [Compound 199, (1S,4r)-4-methoxy-4-((((3R,5aS,6R,8aS, 9R,10S,12R, 12aR)-3,6,9-trimethyldeca-hydro-12H-3,12-epoxy[1,2]dioxepino[4,3-i]isochromen-10-yl)oxy)methyl) cyclohexane-1-carboxylic acid] gave an IC50 (in vitro) of over 20000 nM and an EC50 (HL-60) of 6480 nM.
With C[C@H]1[C@@H](Oc2ccc(C(=O)N[C@H](C(=O)O)C3CCCCC3)cc2)O[C@@H]2O[C@@]3(C)CC[C@H]4[C@H](C)CC[C@@H]1[C@@]24OO3 [Compound 231, (S)-2-cyclohexyl-2-(4-(((3R,5aS,6R,8aS, 9R,10S,12R, 12aR)-3,6,9-trimethyldeca-hydro-12H-3,12-epoxy[1,2]dioxepino[4,3-i]isochromen-10-yl)oxy)benzamido)acetic acid] the IC50 (in vitro) was 80 nM and the EC50 (HL-60) was 17 nM.
Compound C[C@H]1[C@@H](OC[C@H]2CC[C@@H](C(=O)N3CC[C@@H](C(=O)O)C3)CC2)O[C@@H]2O[C@@]3(C)CC[C@H]4[C@H](C)CC[C@@H]1[C@@]24OO3 [Compound 263, (R)-1-((1R,4S)-4-((((3R,5aS,6R,8aS, 9R,10S,12R, 12aR)-3,6,9-trimethyldeca-hydro-12H-3,12-epoxy[1,2]dioxepino[4,3-i]isochromen-10-yl)oxy)methyl)cyclohexane-1-carbonyl) pyrrolidine-3-carboxylic acid] has an IC50 (in vitro) of 16800 nM and an EC50 (HL-60) of 374 nM.
Compound C[C@H]1[C@@H](OC[C@H]2CC[C@@H](C(=O)N[C@H]3C[C@@H](C(=O)O)C3)CC2)O[C@@H]2O[C@@]3(C)CC[C@H]4[C@H](C)CC[C@@H]1[C@@]24OO3 [Compound 241, (1S,3s)-3-((1R,4S)-4-((((3R,5aS,6R,8aS, 9R,10S,12R, 12aR)-3,6,9-trimethyldeca-hydro-12H-3,12-epoxy[1,2]dioxepino[4,3-i]isochromen-10-yl)oxy)methyl)cyclohexane-1-carboxamido) cyclobutane-1-carboxylic acid] has an IC50 (in vitro) of 18800 nM and an EC50 (HL-60) of 214 nM.
Compound C[C@H]1[C@@H](Oc2ccc(CC(=O)NC34CC(C(=O)O)(C3)C4)cc2)O[C@@H]2O[C@@]3(C)CC[C@H]4[C@H](C)CC[C@@H]1[C@@]24OO3 [Compound 303, 3-(2-(4-(((3R,5aS,6R,8aS, 9R,10S,12R, 12aR)-3,6,9-trimethyldeca-hydro-12H-3,12-epoxy[1,2]dioxepino[4,3-i]isochromen-10-yl)oxy)phenyl)acetamido) bicyclo[1.1.1] pentane-1-carboxylic acid] has an IC50 (in vitro) of over 20000 nM and an EC50 (HL-60) of 46.4 nM.
C[C@H]1[C@@H](OC2CCc3cc(C(=O)O)ccc32)O[C@@H]2O[C@@]3(C)CC[C@H]4[C@H](C)CC[C@@H]1[C@@]24OO3 (stereo partly drawn) [Compound 226, 1-(((3R,5aS,6R,8aS, 9R,10S,12R, 12aR)-3,6,9-trimethyldeca-hydro-12H-3,12-epoxy[1,2]dioxepino[4,3-i]isochromen-10-yl)oxy)-2,3-dihydro-1H-indene-5-carboxylic acid] showed an IC50 (in vitro) of 12000 nM and an EC50 (HL-60) of 51.2 nM.
C[C@H]1[C@@H](OCc2ccc(C(=O)NC34CCC(C(=O)O)(C3)C4)cc2)O[C@@H]2O[C@@]3(C)CC[C@H]4[C@H](C)CC[C@@H]1[C@@]24OO3 [Compound 293, 4-(4-((((3R,5aS,6R,8aS, 9R,10S,12R, 12aR)-3,6,9-trimethyldeca-hydro-12H-3,12-epoxy[1,2]dioxepino[4,3-i]isochromen-10-yl)oxy)methyl)benzamido) bicyclo[2.1.1] hexane-1-carboxylic acid] showed an IC50 (in vitro) of over 20000 nM and an EC50 (HL-60) of 43.2 nM.
Work on C[C@@H]1CC[C@H]2[C@@H](C)[C@](OCc3ccc(C(=O)O)cc3Cl)(C(F)(F)F)O[C@@H]3O[C@@]4(C)CC[C@@H]1[C@]32OO4 [Compound 196] yielded an IC50 (in vitro) of 30 nM and an EC50 (HL-60) of 10.3 nM.
With C[C@H]1[C@@H](Oc2ccc(C(C)(C)C(=O)O)cc2F)O[C@@H]2O[C@@]3(C)CC[C@H]4[C@H](C)CC[C@@H]1[C@@]24OO3 [Compound 270, 2-(3-fluoro-4-(((3R,5aS,6R,8aS, 9R,10S,12R, 12aR)-3,6,9-trimethyldeca-hydro-12H-3,12-epoxy[1,2]dioxepino[4,3-i]isochromen-10-yl)oxy)phenyl)-2-methyl-propanoic acid] the IC50 (in vitro) was 700 nM and the EC50 (HL-60) was 28.6 nM.

— patent publication US20260242391A1 (priority 2023, published 2026)
